Reference: patent US10413529B2, “Methods of inhibiting cataracts and presbyopia” (UNIVERSITY OF MASSACHUSETTS, priority 2013, dated 2019)
Read-outs that look alike come from different tables or passages of the source.

Experiments:
[1] = test system: γ-crystallin; assay: Circular dichroism of modified γ-crystallin (secondary structure); type: biochemical; settings: 0.5 mg/mL, 22° C., versus native protein
Protocol: Crystallin samples were dialyzed overnight into 10 mM Na2HPO4/NaH2PO4 buffer pH 6.8 and measured at a concentration of 0.5 mg/mL. CD spectra were measured on a Jasco J715 spectropolarimeter at 22° C. using a quartz cell of 1 mm path length.

[2] = test system: human cadaver lenses; parameters: key to LOCS III grade, Cortical / LOCS III grade, NO / LOCS III grade, PS / LOCS III grade, NC: LOCS III cataract grade on a decimal scale (higher = more severe)
Protocol: Within about 24 hours of death, the eyeball is harvested, sliced and the vitreous is removed. The lens is excised and placed in an incubation medium called Optisol®. Optisol® is a corneal storage medium containing chondroitin sulfate, dextran 40, optisol base powder, sodium bicarbonate, gentamycin, amino acids, sodium pyruvate, L-glutamine, 2-mercaptoethanol and purified water. OD is the right eye and OS is the left eye.
Lens opacities are classified according to the LOCS III system. LOCS III measurements are taken with a slit lamp microscope. The LOCS III contains an expanded set of standards selected from the Longitudinal Study of Cataract slide library at the Center for Clinical Cataract Research, Boston, Mass. It includes six slit lamp images for grading nuclear color (NC) and nuclear opalescence (NO), five retroillumination images for grading cortical cataract (C), and five retroillumination images for grading posterior subcapsular (P) cataract. Cataract severity is graded on a decimal scale, with the standards have regularly spaced intervals on the scale.
In all cases, the control is Optisol® medium. The remaining data points are for isolated human cadaver lenses treated with CAPEG4 solutions with Optisol®.

[3] = 10 mg/mL CAPEG4 (OD), 0 HR, Table 7
[4] = 10 mg/mL CAPEG4, 24 HR, Table 7
[5] = 10 mg/mL CAPEG4, 72 HR, Table 7
[6] = 50 mg/mL CAPEG4 (OD), 0 HR, Table 8
[7] = 50 mg/mL CAPEG4, 24 HR, Table 8
[8] = 50 mg/mL CAPEG4, 72 HR, Table 8
[9] = 100 mg/mL CAPEG4 (OD), 0 HR, Table 9
[10] = 100 mg/mL CAPEG4 (OD), 0 HR, Table 10 (repeat, different eyes)
[11] = 100 mg/mL CAPEG4, 24 HR, Table 9
[12] = 100 mg/mL CAPEG4, 24 HR, Table 10 (repeat, different eyes)
[13] = 100 mg/mL CAPEG4, 72 HR, Table 9
[14] = 100 mg/mL CAPEG4, 72 HR, Table 10 (repeat, different eyes)
[15] = 200 mg/mL CAPEG4 (OD), 0 HR, Table 11
[16] = 200 mg/mL CAPEG4 (OD), 0 HR, Table 12 (second pair of lenses)
[17] = 200 mg/mL CAPEG4, 24 HR, Table 11
[18] = 200 mg/mL CAPEG4, 24 HR, Table 12 (second pair of lenses)
[19] = 200 mg/mL CAPEG4, 72 HR, Table 11
[20] = 200 mg/mL CAPEG4, 72 HR, Table 12 (second pair of lenses)

## NCCOCCOCCOCCOCCC(=O)O [CAPEG4]
[1]
  secondary structure of modified γ-crystallin (CD spectra): showed a similar trend to modifications made with PEG4 and PEG24
[2]
  observation on lens capsule and lens volume: wrinkling of the lens capsule was observed and subjectively exhibited some loss of lens volume
[2]; 10 mg/mL CAPEG4
  change of LOCS III grades versus control: no significant change in the experimental versus control samples
[2]; [3]
  LOCS III grade, Cortical: 1.0
  LOCS III grade, NC: 5.0
  LOCS III grade, NO: 5.0
  LOCS III grade, PS: 0.9
[2]; [4]
  LOCS III grade, Cortical: 1.0
  LOCS III grade, NC: 5.0
  LOCS III grade, NO: 5.0
  LOCS III grade, PS: 0.9
[2]; [5]
  LOCS III grade, Cortical: 0.9
  LOCS III grade, NC: 5.0
  LOCS III grade, NO: 5.0
  LOCS III grade, PS: 0.9
[2]; [6]
  LOCS III grade, Cortical: 1.0
  LOCS III grade, NC: 1.7
  LOCS III grade, NO: 2.0
  LOCS III grade, PS: 1.1
[2]; [7]
  LOCS III grade, Cortical: 1.0
  LOCS III grade, NC: 1.7
  LOCS III grade, NO: 2.0
  LOCS III grade, PS: 0.9
[2]; [8]
  LOCS III grade, Cortical: 1.0
  LOCS III grade, NC: 1.9
  LOCS III grade, NO: 2.0
  LOCS III grade, PS: 0.9
[2]; 50 mg/mL CAPEG4, up to 72 hours
  difference of cortical cataracts and NO versus controls: no significant differences between the controls and 50 mg/mL incubation
[2]; [9]
  LOCS III grade, Cortical: 3.0
  LOCS III grade, NC: 1.3
  LOCS III grade, NO: 1.8
  LOCS III grade, PS: 0.9
[2]; [10]
  LOCS III grade, Cortical: 3.0
  LOCS III grade, NC: 3.0
  LOCS III grade, NO: 3.0
  LOCS III grade, PS: 1.8
[2]; [11]
  LOCS III grade, Cortical: 2.9
  LOCS III grade, NC: 1.1
  LOCS III grade, NO: 1.2
  LOCS III grade, PS: 0.9
[2]; [12]
  LOCS III grade, Cortical: 2.6
  LOCS III grade, NC: 3.0
  LOCS III grade, NO: 3.0
  LOCS III grade, PS: 1.5
[2]; [13]
  LOCS III grade, Cortical: 2.7
  LOCS III grade, NC: 1.1
  LOCS III grade, NO: 1.2
  LOCS III grade, PS: 0.9
[2]; [14]
  LOCS III grade, Cortical: 2.0
  LOCS III grade, NC: 3.2
  LOCS III grade, NO: 3.0
  LOCS III grade, PS: 1.0
[2]; [15]
  LOCS III grade, Cortical: 2.5
  LOCS III grade, NC: 2.4
  LOCS III grade, NO: 2.4
  LOCS III grade, PS: 0
[2]; [16]
  LOCS III grade, Cortical: 1.3
  LOCS III grade, NC: 2.8
  LOCS III grade, NO: 3.2
  LOCS III grade, PS: 0.9
[2]; [17]
  LOCS III grade, Cortical: 2.2
  LOCS III grade, NC: 2.4
  LOCS III grade, NO: 2.4
  LOCS III grade, PS: 0
[2]; [18]
  LOCS III grade, Cortical: 1.0
  LOCS III grade, NC: 2.8
  LOCS III grade, NO: 3.2
  LOCS III grade, PS: 0.9
[2]; [19]
  LOCS III grade, Cortical: 2.0
  LOCS III grade, NC: 2.4
  LOCS III grade, NO: 2.4
  LOCS III grade, PS: 0
[2]; [20]
  LOCS III grade, Cortical: 0.9
  LOCS III grade, NC: 2.8
  LOCS III grade, NO: 3.2
  LOCS III grade, PS: 0.9
[2]; compared with Optisol lowered to the same pH with citric acid
  cause of reduction in cataracts (agent versus pH of medium): due to the CAPEG4 and not a pH effect of the medium
